Assays:
[1] = system: Retinal capillary endothelial cells (RCEC); assay: Quantification of viable cells by MTT assay, RCEC; type: cell-based, bovine; details: 5 μM, 48 h
Experimental: FIG. 2 illustrates the specific inhibition of endothelial cell proliferation by recombinant kallistatin. RCEC were treated with recombinant kallistatin at concentrations of 5,10, 20, 40, 80 and 160 nM for 72 h. Viable cells were quantified by MTT assay. […] This effect appeared to be kallistatin concentration-dependent, with an apparent IC50 of 50 nM (FIG. 2) which is similar to that of K5, a known angiogenic inhibitor (Zhang et al., 2001).
FIG. 7 illustrates the effects of B1 and B2 kinin receptor antagonists on RCEC. In order to test whether the anti-angiogenic activity of kallistatin is via reducing kinin production by inhibiting kallikrein activity, RCEC were treated with 5 μM des-Arg^9-[Leu^8]-bradykinin, a specific antagonist of the B1 kinin receptor or Hoe-140, a specific B2 kinin receptor antagonist, in the presence or absence of 40 nM kallistatin for 48 h, and viable cells were quantified by MTT assay.
Quantification of viable cells: Cells were plated in 12-well plates in triplicate and cultured in the growth medium until they reached 60-70% of confluency. The culture medium was replaced with a medium containing 1% fetal bovine serum (FBS). Recombinant kallistatin was added to the cover medium to various concentrations and incubated with the cells for 72 h. The viable cells were quantified by the MTT (3-[4,5-dimethylthiazol-2-yl]-2,5-dephenyl tetrazolium bromid, Roche, Mannheim, Germany) assay following a protocol recommended by the manufacturer. The effect of kallistatin on viable cell number was analyzed using Student's t test.

B1 receptor = details: at 1 mM; cited from earlier work

| Substance | inhibition of RCEC (viable cells) ([1]; P>0.05) | block of bradykinin-induced endothelial cell proliferation (B1 receptor) | viable cells, % of the control ([1]; P<0.05) |
| --- | --- | --- | --- |
| Hoe-140 [reference compound] | no significant inhibition |  |  |
| des-Arg^9-[Leu^8]-bradykinin [reference compound] |  | completely block bradykinin-induced endothelial cell proliferation | 85 % of the control |

From patent publication US20070298997A1, “Compounds useful in treating diabetic microvascular complications and age-related macular degeneration” (priority 2003, published 2007)
